This note sets out measurements from publication PMC6514978, “Synthesis, Antibacterial Activities, Mode of Action and Acute Toxicity Studies of New Oxazolidinone-Fluoroquinolone Hybrids” (Molecules, 2019).

One experiment has as its system MRSA (13B262). The experiment can be described thus: MIC, broth microdilution (CLSI), clinical isolate. The experiment is classed as cell-based. Particulars: Staphylococcus aureus. An excerpt: (§1) 6 standard strains and 3 clinical isolates were used to the preliminary evaluation of in vitro antibacterial activities of oxazolidinone-fluoroquinolone hybrids. For the further evaluation of hybrids OBP-4 and OBP-5, 263 clinical isolates including S. aureus (46), S. haemolyticus(32), S. epidermidis (10), E. faecalis (72), E. faecium (47), S. pneumoniae (13), H. parasuis (34), S. suis (9), and 8 resistant strains including MRSA, MRSE, CIP-resistant S. aureus and S. haemolyticus, VAN and quinolone-resistant S. pneumoniae, LZD-resistant E. faecalis, LZD/VAN and quinolone-resistant E. faecium were collected and tested.
(§2) Susceptibility testing of oxazolidinone-fluoroquinolone hybrids against various bacteria was performed by the broth microdilution method as outlined by the Clinical and Laboratory Standards Institute (CLSI). Three types of media, including cation-adjusted Mueller Hinton broth, Haemophilus Test Medium and cation-adjusted Mueller Hinton broth that contained 3%–5% lysed horse blood, were used to culture the corresponding bacteria. All compounds including comparator drugs were dissolved in an appropriate solvent at a concentration of 2.048 mg/mL and then serially diluted two-fold to provide the required concentrations. A final inoculum of 5 × 10^5 CFU/mL was used and plates were read after incubation for 16–24 h at 35 °C. […] Standard quality control strains (ATCC) were included throughout. Each determination was repeated in triplicate.
(Dilution methods test growth across graded concentrations, often in twofold steps.)

The subject of experiment [1] is S. agalactiae^R (13B317), levofloxacin-resistant S. agalactiae. In words: MIC, broth microdilution (CLSI), clinical isolate. Particulars: Streptococcus agalactiae; levofloxacin-resistant S. agalactiae (13B317). It counts as cell-based.
From the text: as §1, §2

For another experiment, the system named is VRE (13B330). In words: MIC, broth microdilution (CLSI), clinical isolate. It counts as cell-based, vancomycin-resistant enterococcus. Particulars: Enterococcus.
From the text: as §1, §2

Another experiment deals with E. coli (ATCC25922). In words: MIC, broth microdilution (CLSI), standard strain. It counts as cell-based. Particulars: Escherichia coli; E. coli (ATCC25922); read-out: MIC.
From the text: as §1, §2

Another experiment deals with E. faecalis (ATCC29212). The experiment can be described thus: MIC, broth microdilution (CLSI), standard strain. The experiment is classed as cell-based. Particulars: Enterococcus faecalis.
From the text: as §1, §2

Experiment [2] has as its system H. influenzae (ATCC49247). In words: MIC, broth microdilution (CLSI), standard strain. Particulars: Haemophilus influenzae. The experiment is classed as cell-based.
From the text: as §1, §2

The test system of experiment [3] is P. Aeruginosa (ATCC27853). In words: MIC, broth microdilution (CLSI), standard strain. The experiment is classed as cell-based. Particulars: Pseudomonas aeruginosa; P. Aeruginosa (ATCC27853); read-out: MIC.
From the text: as §1, §2

The next experiment relates to S. aureus (ATCC29213). In words: MIC, broth microdilution (CLSI), standard strain. It counts as cell-based. Particulars: Staphylococcus aureus.
From the text: as §1, §2

For experiment [4], the system named is S. pneumoniae (ATCC49619). In words: MIC, broth microdilution (CLSI), standard strain. Particulars: Streptococcus pneumoniae. It counts as cell-based.
From the text: as §1, §2

Where [5] appears, read: E. faecalis (ATCC29212), read-out: MIC.

Values after ≈ are worked out from the molar mass of the structure shown. Like-named read-outs stand apart in the source and are kept apart here.

`COc1c(N2C[C@@H]3CCCN[C@@H]3C2)c(F)cc2c(=O)c(C(=O)O)cn(C3CC3)c12` [MXF, moxifloxacin, reference compound]: the MIC against MRSA (13B262) is 8 µg/mL (≈ 19.9 µM); in experiment [1], 4 µg/mL (≈ 9.96 µM); in the experiment on VRE (13B330), 64 µg/mL (≈ 159 µM); with E. coli (ATCC25922) it was 0.016 µg/mL (≈ 0.0399 µM); in the experiment on E. faecalis (ATCC29212) (ATCC29212), 0.125 µg/mL (≈ 0.311 µM); in [2] it was 0.008 µg/mL (≈ 0.0199 µM). Besides, the values for the MIC (in experiment [3]; against S. aureus (ATCC29213); in [4]) were 4 µg/mL (≈ 9.96 µM), 0.031 µg/mL (≈ 0.0772 µM) and 0.062 µg/mL (≈ 0.154 µM), respectively.

`CN1COc2c(N3CC4C(C3)C4Nc3ccc(N4C[C@H](CO)OC4=O)cc3F)c(F)cc3c(=O)c(C(=O)O)cn1c23` (stereo partly drawn) [OBP-6]: the MIC in the experiment with MRSA (13B262) worked out at 64 µg/mL (≈ 112 µM); in experiment [1], 2 µg/mL (≈ 3.51 µM); against VRE (13B330) it was 64 µg/mL (≈ 112 µM); with E. coli (ATCC25922), 1 µg/mL (≈ 1.76 µM); in the experiment on E. faecalis (ATCC29212) (setting [5]), 4 µg/mL (≈ 7.02 µM); in experiment [2], 0.016 µg/mL (≈ 0.0281 µM). Also, the results for the MIC (in [3]; against S. aureus (ATCC29213); in experiment [4]) were 16 µg/mL (≈ 28.1 µM), 0.062 µg/mL (≈ 0.109 µM) and 0.5 µg/mL (≈ 0.878 µM), respectively.

For the compound `O=C(O)c1cn(C2CC2)c2cc(N3CC4C(C3)C4Nc3ccc(N4C[C@H](CO)OC4=O)cc3F)c(F)cc2c1=O` (stereo partly drawn) [OBP-7], the MIC with MRSA (13B262) turned out to be 128 µg/mL (≈ 232 µM); in experiment [1], 4 µg/mL (≈ 7.24 µM); in the experiment with VRE (13B330), 128 µg/mL (≈ 232 µM); in the experiment on E. coli (ATCC25922) it was 0.5 µg/mL (≈ 0.905 µM); with E. faecalis (ATCC29212) (setting [5]) it was 1 µg/mL (≈ 1.81 µM); in experiment [2], 0.031 µg/mL (≈ 0.0561 µM). Also, the MIC in experiment [3] is 64 µg/mL (≈ 116 µM); in the experiment on S. aureus (ATCC29213), 0.25 µg/mL (≈ 0.452 µM); in [4] it was 2 µg/mL (≈ 3.62 µM).

Regarding `C[C@H]1COc2c(N3CCC(O)(COc4ccc(N5C[C@H](CO)OC5=O)cc4F)CC3)c(F)c(N)c3c(=O)c(C(=O)O)cn1c23` [OBP-3], the MIC worked out at 2 µg/mL (≈ 3.24 µM) with MRSA (13B262); 0.5 µg/mL (≈ 0.811 µM) in experiment [1]; 2 µg/mL (≈ 3.24 µM) in the experiment with VRE (13B330); 64 µg/mL (≈ 104 µM) with E. coli (ATCC25922); 1 µg/mL (≈ 1.62 µM) with E. faecalis (ATCC29212) (setting [5]); 2 µg/mL (≈ 3.24 µM) in [2]. For the same compound, the results for the MIC (in experiment [3]; against S. aureus (ATCC29213); in experiment [4]) were 128 µg/mL (≈ 208 µM), 2 µg/mL (≈ 3.24 µM) and 0.5 µg/mL (≈ 0.811 µM), respectively.
